In PMC9218960 (ACS infectious diseases, 2020):
Substitutions are numbered along the chain they refer to.

What was measured:
PfENT1 V345I = target: T1, PfENT1 V345I (Plasmodium falciparum, UniProt Q8IDM6, V345I); assay: [3H]uridine uptake inhibition by purines in PfENT1-SNP-expressing yeast; assay type: cell-based
T1 sequence (Q8IDM6 1-422 V345I): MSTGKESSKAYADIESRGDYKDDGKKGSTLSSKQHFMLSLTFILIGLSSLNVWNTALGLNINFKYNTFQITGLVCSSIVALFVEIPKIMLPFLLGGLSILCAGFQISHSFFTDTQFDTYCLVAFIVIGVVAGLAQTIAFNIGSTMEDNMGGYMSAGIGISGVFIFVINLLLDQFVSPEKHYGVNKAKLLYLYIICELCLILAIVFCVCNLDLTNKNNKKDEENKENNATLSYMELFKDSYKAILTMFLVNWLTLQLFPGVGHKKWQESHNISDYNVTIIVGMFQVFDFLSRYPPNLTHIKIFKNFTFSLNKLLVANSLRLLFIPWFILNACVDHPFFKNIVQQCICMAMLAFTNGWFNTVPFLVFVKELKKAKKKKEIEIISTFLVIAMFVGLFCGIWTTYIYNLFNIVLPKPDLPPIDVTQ

[1] = target: T2, PfENT1 F36S/V129I/L133F/P417L (Quad) (Plasmodium falciparum, UniProt Q8IDM6, F36S/L133F/P417L/V129I); assay: as above; assay type: cell-based
T2 sequence (Q8IDM6 1-422 F36S/V129I/L133F/P417L): T1 sequence (Q8IDM6 1-422 V345I) with F36S, V129I, L133F, I345V, P417L

## Nc1ncnc2nc[nH]c12 [Adenine, adenine]
PfENT1 V345I
  IC50: 225 ± 17 µM
[1]
  IC50: 362 ± 56 µM

## O=c1[nH]cnc2nc[nH]c12 [Hypoxanthine, hypoxanthine]
PfENT1 V345I
  IC50: 161 ± 57 µM
[1]
  IC50: 108 ± 5 µM

## OC[C@H]1O[C@@H](n2cnc3c(O)ncnc32)[C@H](O)[C@@H]1O [Inosine, inosine]
PfENT1 V345I
  IC50: 4 ± 0.2 µM
[1]
  IC50: 12 ± 1 µM
